{"source": "paper PMC5711809", "about": "“Bayesian Analysis of MicroScale Thermophoresis Data to Quantify Affinity of Protein:Protein Interactions with Human Survivin” (Scientific Reports, 2017)", "test": "solubility in typical aqueous buffers", "assay_type": "physicochemical", "note": "Peptide text beside a SMILES is read from it.", "data": [{"smiles": "CC(C)C[C@H](NC(=O)[C@H](CO)NC(=O)[C@H](CC(N)=O)NC(=O)[C@@H](NC(=O)[C@H](CCCCN)NC(=O)[C@H](C)NC(=O)[C@@H](NC(=O)[C@H](CCCNC(=N)N)NC(=O)[C@H](CO)NC(=O)[C@H](CO)NC(=O)CN)C(C)C)[C@@H](C)O)C(=O)N[C@@H](CCCNC(=N)N)C(=O)N[C@@H](CCCNC(=N)N)C(=O)N[C@@H](CCCNC(=N)N)C(=O)N[C@@H](CCCCN)C(=O)O", "note": "[Borealin^6–20, GSSRVAKTNSLRRRK] (H-GSSRVAKTNSLRRRK-OH)", "values": [{"measurement": "solubility (in words)", "value": "soluble"}]}]}
